Assay results: patent EP4650362A1, “NEUROPROTECTIVE PSD-95 POLYPEPTIDE INHIBITOR AND USE THEREOF” (Beijing Tuo Jie Biopharmaceutical Co. Ltd., priority 2023, dated 2024)
Non-standard residues stand in square brackets, D forms with d. Residues, ends and D or L forms follow the SMILES beside them. No end group written: not given here. Tle = CC(C)(C)[C@H](N)C(=O)O; Dab = NCC[C@H](N)C(=O)O; Aib = CC(C)(N)C(=O)O

Test: nephrotoxicity in rats (blood urea nitrogen, serum creatinine)
Type: in vivo, SD rats
Settings: for Blood urea nitrogen (BUN) levels / Serum creatinine (Crea) levels: rat serum; for renal safety concerns: within the tested concentration range, 7-day monitoring period
Method: With male SD rats as test animals, the nephrotoxicity of a polypeptide compound administered via single intravenous bolus injection in rats (serum) was studied.
This test was performed synchronously with Test Examples 3.6, with blood collection time points set as follows: before administration (day 0), and days 2, 4, and 7 post-administration. At each time point, 0.3 mL of blood was collected, transferred to a centrifuge tube, and left to stand at room temperature for 1 h. Then the whole blood sample was centrifuged at 4 °C at 4000 g for 5 min, and a serum sample was obtained by separation and cryopreserved at -80 °C.
The blood urea nitrogen (BUN) and serum creatinine levels at each time point were determined through commercially available kits. For blood urea nitrogen, the urease continuous monitoring method was used. For serum creatinine, the sarcosine oxidase method was used. The sample was thawed in a refrigerator at 2 to 8 °C and vortexed for thorough mixing, and 100 µL of the sample was pipetted into a sample cup. The cup was placed in the sample position of a biochemistry analyzer, and assays were performed according to the instructions of the kits. The experimental results are shown in Tables 8-1 and 8-2, FIG. 5A, and FIG. 5B.

[1] = 0.3 nmol/g, day 0 (before administration)
[2] = 1 nmol/g, day 0 (before administration)
[3] = 3 nmol/g, day 0 (before administration)

CC(C)[C@H](NC(=O)[C@H](CC(=O)O)NC(=O)[C@@H](NC(=O)[C@@H](NC(=O)[C@@H](NC(=O)[C@@H](NC(=O)[C@H](CCN)NC(=O)C(C)(C)NC(=O)CNC(=O)[C@@H](CCCNC(=N)N)NC(=O)[C@@H](CCCNC(=N)N)NC(=O)[C@@H](CCCNC(=N)N)NC(=O)[C@@H](CCC(N)=O)NC(=O)[C@@H](CCCNC(=N)N)NC(=O)[C@@H](CCCNC(=N)N)NC(=O)[C@@H](CCCCN)NC(=O)[C@@H](CCCCN)NC(=O)[C@@H](CCCNC(=N)N)NC(=O)CNC(=O)[C@H](N)Cc1ccc(O)cc1)[C@@H](C)O)C(C)(C)C)C(C)(C)C)[C@@H](C)O)C(=O)O [Polypeptide compound 14, y-G-r-k-k-r-r-q-r-r-r-G-Aib-Dab-T-Tle-Tle-T-D-V] (H-[dY]G[dR][dK][dK][dR][dR][dQ][dR][dR][dR]G[Aib][Dab]T[Tle][Tle]TDV-OH)
Blood urea nitrogen (BUN) levels [1]: 11.8 ± 0.1 mg/dL
Serum creatinine (Crea) levels [1]: 0.192 ± 0.006 mg/dL
Blood urea nitrogen (BUN) levels (0.3 nmol/g, day 2): 13.7 ± 3.7 mg/dL
Serum creatinine (Crea) levels (0.3 nmol/g, day 2): 0.200 ± 0.015 mg/dL
Blood urea nitrogen (BUN) levels (0.3 nmol/g, day 4): 16.6 ± 4.6 mg/dL
Serum creatinine (Crea) levels (0.3 nmol/g, day 4): 0.212 ± 0.024 mg/dL
Blood urea nitrogen (BUN) levels (0.3 nmol/g, day 7): 15.3 ± 5.2 mg/dL
Serum creatinine (Crea) levels (0.3 nmol/g, day 7): 0.205 ± 0.023 mg/dL
Blood urea nitrogen (BUN) levels [2]: 14.2 ± 3.0 mg/dL
Serum creatinine (Crea) levels [2]: 0.195 ± 0.013 mg/dL
Blood urea nitrogen (BUN) levels (1 nmol/g, day 2): 15.5 ± 1.8 mg/dL
Serum creatinine (Crea) levels (1 nmol/g, day 2): 0.203 ± 0.018 mg/dL
Blood urea nitrogen (BUN) levels (1 nmol/g, day 4): 17.1 ± 2.7 mg/dL
Serum creatinine (Crea) levels (1 nmol/g, day 4): 0.208 ± 0.017 mg/dL
Blood urea nitrogen (BUN) levels (1 nmol/g, day 7): 13.7 ± 1.4 mg/dL
Serum creatinine (Crea) levels (1 nmol/g, day 7): 0.221 ± 0.005 mg/dL
Blood urea nitrogen (BUN) levels [3]: 16.3 ± 1.0 mg/dL
Serum creatinine (Crea) levels [3]: 0.22 ± 0.015 mg/dL
Blood urea nitrogen (BUN) levels (3 nmol/g, day 2): 16.2 ± 0.7 mg/dL
Serum creatinine (Crea) levels (3 nmol/g, day 2): 0.208 ± 0.006 mg/dL
Blood urea nitrogen (BUN) levels (3 nmol/g, day 4): 16.0 ± 2.0 mg/dL
Serum creatinine (Crea) levels (3 nmol/g, day 4): 0.226 ± 0.012 mg/dL
Blood urea nitrogen (BUN) levels (3 nmol/g, day 7): 14.5 ± 1.7 mg/dL
Serum creatinine (Crea) levels (3 nmol/g, day 7): 0.233 ± 0.014 mg/dL
renal safety concerns (rats): neither NA-1 nor polypeptide compound 14 caused significant renal safety concerns

YGRKKRRQRRRKLSSIESDV [NA-1, YGRKKRRQR RRKLSSIESDV, reference compound]
Blood urea nitrogen (BUN) levels [3]: 10.8 ± 1.9 mg/dL
Serum creatinine (Crea) levels [3]: 0.198 ± 0.007 mg/dL
Blood urea nitrogen (BUN) levels (3 nmol/g, day 2): 14.8 ± 1.9 mg/dL
Serum creatinine (Crea) levels (3 nmol/g, day 2): 0.215 ± 0.003 mg/dL
Blood urea nitrogen (BUN) levels (3 nmol/g, day 4): 17.2 ± 3.6 mg/dL
Serum creatinine (Crea) levels (3 nmol/g, day 4): 0.208 ± 0.008 mg/dL
Blood urea nitrogen (BUN) levels (3 nmol/g, day 7): 19 ± 3.3 mg/dL
Serum creatinine (Crea) levels (3 nmol/g, day 7): 0.209 ± 0.009 mg/dL
increase of blood urea nitrogen level compared to before administration (rats, 3 nmol/g, day 4 and day 7): ≤ 2 fold
renal safety concerns (rats): neither NA-1 nor polypeptide compound 14 caused significant renal safety concerns
